How the values were obtained:
Format in all cases: cell-based
[1] = test system: A498; assay: NCI in vitro mini panel, human cancer cell line growth inhibition; conditions: Renal A498, 48 hrs
Method: (§1) ED50 (P388) and GI50 (HTCL) identify the drug dose which reduces the percent tumor/cell growth to 50%. There is no mathematical difference between ED50 and GI50, both of which are calculated using the same formula. The only difference is historical usage.
(§2) TGI, means "Total Growth Inhibition", and identifies the drug dose needed to yield zero percent growth, i.e. there are just as many cells at the end of the experiment as were present at the beginning. Whether just as many cells were killed as were produced (steady state), or no growth occurred (total inhibition) cannot be distinguished.
(§3) LC50, means "Lethal Concentration 50%", and identifies the drug concentration which reduces to one-half of the cells originally present at the beginning of the experiment.
(§4) Each drug is tested at five (5) doses: 100--10-1-0.1--0.01 μg/mL. Percent Growths are calculated for each dose. The two (or three) doses with growth values above, below, (or near to) 50% growth are used to calculate the ED50 /GI50 values using a linear regression computation. If no dose yields a growth value under 50%, the results are expressed as: ED50 >(highest dose). If no dose yields growth higher than 50% growth, then ED50 <(lowest dose). Similar calculations are performed for the TGI at 0% growth, and at -50% growth for the LC50.
(§5) At the start of each experiment, cells from the in vitro cell cultures are inoculated into the appropriate tubes or microtiter plates. One set of control tubes/plates is immediately counted to determine the number of cells at the start of the experiment. This is the "baseline count", or "Tzero reading". At the end of the experiment (48 hrs later), a second set of control tubes/plates is analyzed to determine the "Control Growth" value. The growth (or death) of cells relative to the initial quantity of cells is used to define the "Percent of Growth."
(§6) Similarly, the compounds disclosed herein have also been tested against an NCI in vitro mini panel. For each of six cell lines GI50, TGI, and LC50 amounts were calculated for each compound. Each compound was also tested against the PS-388 cell line and for this test an ED50 was calculated.
(§7) The protocols followed, for the NCI minipanel are, except for the number of cell lines, those established by M. R. Boyd Ph.D., and well known to those of ordinary skill in the art. The procedure followed for the test against PS-388 Leukemia is the same that was followed in the superseded NCI P-388 screening test, which is also well known to those having ordinary skill in the art.

[2] = test system: KM20L2; assay: as above; conditions: Colon KM20L2, 48 hrs
Method: as §1, §2, §3, §4, §5, §6, §7

[3] = test system: NCI-H460; assay: as above; conditions: Lung-NSC NCI-H460, 48 hrs
Method: as §1, §2, §3, §4, §5, §6, §7

[4] = test system: OVCAR-3; assay: as above; conditions: Ovarian OVCAR-3, 48 hrs
Method: as §1, §2, §3, §4, §5, §6, §7

[5] = test system: SF-295; assay: as above; conditions: CNS SF-295, 48 hrs
Method: as §1, §2, §3, §4, §5, §6, §7

[6] = test system: SK-MEL-5; assay: as above; conditions: Melanoma SK-MEL-5, 48 hrs
Method: as §1, §2, §3, §4, §5, §6, §7

[7] = test system: PS-388; assay: PS-388 mouse leukemia cell line test; conditions: Mouse Leukemia PS-388
Method: as §1, §4, §5, §6, §7

Substance | GI-50 [1] | LC-50 [1] | TGI [1] | GI-50 [2] | LC-50 [2] | TGI [2] | GI-50 [3] | LC-50 [3] | TGI [3] | GI-50 [4] | LC-50 [4] | TGI [4] | GI-50 [5] | LC-50 [5] | TGI [5] | GI-50 [6] | LC-50 [6] | TGI [6] | ED-50 [7]
L-Dolavalyl-L-Leucyl-N-methyl-(3R,4S,5S)-Dolaisoleuinyl-(2R,3R,4S)-Dolaproinyl-L-Phenylalanine N-3-chlorophenylamide [8c] | 0.00042 µg/mL | > 0.01 µg/mL | > 0.01 µg/mL | 0.00021 µg/mL | > 0.01 µg/mL | 0.0012 µg/mL | 0.0017 µg/mL | > 0.01 µg/mL | 0.0054 µg/mL | 0.000064 µg/mL | > 0.01 µg/mL | 0.0011 µg/mL | 0.00088 µg/mL | > 0.01 µg/mL | > 0.01 µg/mL | 0.000042 µg/mL | > 0.01 µg/mL | 0.00074 µg/mL | 0.0000371 µg/mL
L-Dolavalyl-L-Leucyl-N-methyl-(3R,4S,5S)-Dolaisoleuinyl-(2R,3R,4S)-Dolaproinyl-Dolaphenine [10a] | 0.00026 µg/mL | > 0.01 µg/mL | 0.0063 µg/mL | 0.000034 µg/mL | > 0.01 µg/mL | 0.001 µg/mL | 0.00022 µg/mL | > 0.01 µg/mL | 0.0007 µg/mL | 0.000031 µg/mL | > 0.01 µg/mL | 0.00051 µg/mL | 0.00027 µg/mL | > 0.01 µg/mL | > 0.01 µg/mL | 0.000058 µg/mL | > 0.01 µg/mL | > 0.01 µg/mL | 0.0000312 µg/mL
L-Dolavalyl-L-Leucyl-N-methyl-(3R,4S,5S)-Dolaisoleuinyl-(2R,3R,4S)-Dolaproinyl-N-2(3-chlorophenyl) ethylamide [10c] | 0.0038 µg/mL | > 0.01 µg/mL | > 0.01 µg/mL | 0.0020 µg/mL | > 0.01 µg/mL | > 0.01 µg/mL | 0.0029 µg/mL | > 0.01 µg/mL | 0.0084 µg/mL | 0.0019 µg/mL | > 0.01 µg/mL | > 0.01 µg/mL | 0.0035 µg/mL | > 0.01 µg/mL | > 0.01 µg/mL | 0.0025 µg/mL | > 0.01 µg/mL | > 0.01 µg/mL | 0.00314 µg/mL
L-Dolavalyl-L-Leucyl-N-methyl-(3R,4S,5S)-Dolaisoleuinyl-(2R,3R,4S)-Dolaproinyl-L-Phenylalanine N-4-chlorophenylamide [8d] | 0.00018 µg/mL | > 0.01 µg/mL | 0.0038 µg/mL | 0.000015 µg/mL | > 0.01 µg/mL | 0.0012 µg/mL | 0.00032 µg/mL | > 0.01 µg/mL | 0.0011 µg/mL | 0.0000085 µg/mL | > 0.01 µg/mL | 0.00023 µg/mL | 0.00034 µg/mL | > 0.01 µg/mL | > 0.01 µg/mL | 0.0000051 µg/mL | > 0.01 µg/mL | > 0.01 µg/mL | 0.0000025 µg/mL
L-Dolavalyl-L-Leucyl-N-methyl-(3R,4S,5S)-Dolaisoleuinyl-(2R,3R,4S)-Dolaproinyl-L-Methionine N-4-chlorophenylamide [8b] | 0.00045 µg/mL | > 0.01 µg/mL | > 0.01 µg/mL | 0.00028 µg/mL | > 0.01 µg/mL | > 0.01 µg/mL | 0.003 µg/mL | > 0.01 µg/mL | 0.009 µg/mL | 0.000031 µg/mL | > 0.01 µg/mL | 0.0016 µg/mL | 0.0029 µg/mL | > 0.01 µg/mL | > 0.01 µg/mL | 0.000018 µg/mL | > 0.01 µg/mL | > 0.01 µg/mL | 0.000434 µg/mL
L-Dolavalyl-L-Leucyl-N-methyl-(3R,4S,5S)-Dolaisoleuinyl-(2R,3R,4S)-Dolaproinyl-L-Methionine N-2-benzothiazolamide [8e] | 0.00087 µg/mL | > 0.01 µg/mL | > 0.01 µg/mL | 0.00034 µg/mL | > 0.01 µg/mL | > 0.01 µg/mL | 0.0032 µg/mL | > 0.01 µg/mL | > 0.01 µg/mL | 0.00008 µg/mL | > 0.01 µg/mL | 0.0029 µg/mL | 0.0036 µg/mL | > 0.01 µg/mL | > 0.01 µg/mL | 0.000051 µg/mL | > 0.01 µg/mL | > 0.01 µg/mL | 0.000839 µg/mL
L-Dolavalyl-L-Leucyl-N-methyl-(3R,4S,5S)-Dolaisoleuinyl-(2R,3R,4S)-Dolaproinyl-L-Methionine N-3-quinolinamide [8g] | 0.00026 µg/mL | > 0.01 µg/mL | > 0.01 µg/mL | 0.000019 µg/mL | > 0.01 µg/mL | 0.0012 µg/mL | 0.00032 µg/mL | > 0.01 µg/mL | 0.0012 µg/mL | < 0.000006 µg/mL | > 0.01 µg/mL | 0.001 µg/mL | 0.00041 µg/mL | > 0.01 µg/mL | > 0.01 µg/mL | < 0.000006 µg/mL | > 0.01 µg/mL | > 0.01 µg/mL | 0.000271 µg/mL
L-Dolavalyl-L-Leucyl-N-methyl-(3R,4S,5S)-Dolaisoleuinyl-(2R,3R,4S)-Dolaproinyl-L-Proline N-2-benzothiazolamide [8f] | > 0.01 µg/mL | > 0.01 µg/mL | > 0.01 µg/mL | 0.0074 µg/mL | > 0.01 µg/mL | > 0.01 µg/mL | > 0.01 µg/mL | > 0.01 µg/mL | > 0.01 µg/mL | 0.0033 µg/mL | > 0.01 µg/mL | > 0.01 µg/mL | > 0.01 µg/mL | > 0.01 µg/mL | > 0.01 µg/mL | 0.0043 µg/mL | > 0.01 µg/mL | > 0.01 µg/mL | 0.00405 µg/mL
